Source: patent publication US8039500B2, “Fused heterocyclic compounds” (Takeda Pharmaceutical Company Limited, priority 2006, dated 2011)

How the values were obtained:
human CRF receptor = target: T1, human CRF receptor (Homo sapiens, UniProt P34998); assay: CRF binding inhibitory rate / receptor binding experiment with 125I-CRF; conditions: human CRF receptor expressing CHO cellular membrane fraction, 50 pM 125I-CRF (ovine CRF), room temperature 1.5 hr, 0.05 nM to 10 μM of compound; read-out: IC50 values (CRF binding inhibition)
T1 construct: expressed in transfected cells; host or cells: CHO cells (membrane fraction)
T1 sequence (P34998 24-415): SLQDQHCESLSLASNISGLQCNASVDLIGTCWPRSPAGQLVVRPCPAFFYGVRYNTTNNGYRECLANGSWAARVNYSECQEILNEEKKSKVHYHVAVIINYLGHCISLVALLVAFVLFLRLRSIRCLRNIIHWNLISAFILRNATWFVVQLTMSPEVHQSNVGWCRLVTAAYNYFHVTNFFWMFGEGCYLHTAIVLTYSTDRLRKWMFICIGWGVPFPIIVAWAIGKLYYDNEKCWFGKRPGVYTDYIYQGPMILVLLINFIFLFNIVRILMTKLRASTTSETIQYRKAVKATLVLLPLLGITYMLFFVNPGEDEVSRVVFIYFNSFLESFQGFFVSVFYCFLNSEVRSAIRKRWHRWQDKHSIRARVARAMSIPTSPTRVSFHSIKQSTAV
Protocol: Measurement of CRF Binding Inhibitory Rate
A receptor binding experiment was carried out using a human CRF receptor expressing CHO cellular membrane fraction and ovine CRF, [^125I]-tyr^0(^125I-CRF). 1000 nM of a test compound was incubated with 1 μg of human CRF receptor expressing CHO cellular membrane fraction and 50 pM of ^125I-CRF in a binding assay buffer (50 mM Tris-HCl, 5 mM EDTA, 10 mM MgCl2, 0.05% CHAPS, 0.1% BSA, 0.5 mM PMSF, 0.1 μg/mL pepstatin, 20 μg/mL leupeptin, pH 7.5). In addition, for measuring nonspecific binding (NSB), 0.1 μM unlabelled human Urocortin was incubated with 5 μg of human CRF receptor expressing CHO cellular membrane fraction and 50 pM of ^125I-CRF in a binding assay buffer. After a binding reaction was carried out at room temperature for 1.5 hr, the membrane was entrapped on a glass filter (UniFilter plate GF-C/Perkin Elmer) by suction filtration using a cell harvester (Perkin Elmer), and washed with ice-cooled 50 mM Tris-HCl (pH 7.5). After drying the glass filter, a liquid scintillation cocktail (Microscinti 0, Perkin Elmer) was added, and the radioactivity of ^125I-CRF remaining on a glass filter was measured using Topcount (Perkin Elmer).
(TB-SB)/(TB-NSB)×100 (SB: radioactivity when a compound is added, TB: maximum binding radioactivity, NSB: nonspecific binding radioactivity) were calculated to obtain binding inhibitory rates under the range of the presence from 0.05 nM to 10 μM of each compound. The IC50 values were calculated by using GraphPad Prism software.

SMILES: CCC(CC)c1cccc2nc(Cc3c(C)cc(C)cc3C)n(C)c12 [Example 5, 7-(1-Ethylpropyl)-2-(mesitylmethyl)-1-methyl-1H-benzimidazole]
- IC50 (human CRF receptor): < 1000 nM

SMILES: CC=C(CC)c1cccc2nc(Cc3c(C)cc(C)cc3C)n(C)c12 (mixture of isomers) [Example 4, 7-[1-Ethylprop-1-en-1-yl]-2-(mesitylmethyl)-1-methyl-1H-benzimidazole]
- IC50 (human CRF receptor): < 1000 nM

SMILES: CCC(c1cccc2nc(Cc3c(Cl)cc(C(F)(F)F)cc3Cl)n(C)c12)C(C)O (stereo not drawn) [Example 9, 3-{2-[2,6-Dichloro-4-(trifluoromethyl)benzyl]-1-methyl-1H-benzimidazol-7-yl}pentan-2-ol]
- IC50 (human CRF receptor): < 1000 nM

SMILES: CCC(c1cccc2nc(Cc3c(Cl)cc(C(F)(F)F)cc3Cl)n(C)c12)C(C)OC(C)=O (mixture of isomers) [Example 8, 2-{2-[2,6-Dichloro-4-(trifluoromethyl)benzyl]-1-methyl-1H-benzimidazol-7-yl}-1-methylbutyl acetate]
- IC50 (human CRF receptor): < 1000 nM

SMILES: CCC(CC)c1cccc2nc(C(O)c3c(C)cc(C)cc3C)n(C)c12 (stereo not drawn) [Example 10, [7-(1-Ethylpropyl)-1-methyl-1H-benzimidazol-2-yl](mesityl)methanol]
- IC50 (human CRF receptor): < 1000 nM
- melting point: 132 to 134 °C

SMILES: CCC(O)(CC)c1cccc2nc(Cc3c(Cl)cc(C(F)(F)F)cc3Cl)n(C)c12 [Example 6, 3-{2-[2,6-Dichloro-4-(trifluoromethyl)benzyl]-1-methyl-1H-benzimidazol-7-yl}pentan-3-ol]
- IC50 (human CRF receptor): < 1000 nM

SMILES: CCN(CC)c1cccc2nc(Cc3c(C)cc(C)cc3C)n(C)c12 [Example 1, N,N-Diethyl-2-(mesitylmethyl)-1-methyl-1H-benzimidazol-7-amine]
- IC50 (human CRF receptor): < 1000 nM

SMILES: CC=C(CC)c1cccc2nc(Cc3c(Cl)cc(C(F)(F)F)cc3Cl)n(C)c12 [Example 7, 2-[2,6-Dichloro-4-(trifluoromethyl)benzyl]-7-[1-ethylprop-1-en-1-yl]-1-methyl-1H-benzimidazole]
- IC50 (human CRF receptor): < 1000 nM

SMILES: CCN(CC)c1cccc2nc(Cc3c(Cl)cc(C(F)(F)F)cc3Cl)n(C)c12 [Example 2, 2-[2,6-Dichloro-4-(trifluoromethyl)benzyl]-N,N-diethyl-1-methyl-1H-benzimidazol-7-amine]
- IC50 (human CRF receptor): < 1000 nM
- melting point: 150 to 151 °C

SMILES: CCC(O)(CC)c1cccc2nc(Cc3c(C)cc(C)cc3C)n(C)c12 [Example 3, 3-[2-(Mesitylmethyl)-1-methyl-1H-benzimidazol-7-yl]pentan-3-ol]
- IC50 (human CRF receptor): < 1000 nM
